In the CheMixHub viscosity set:

Assay: xn = mol fraction of the nth substance listed

Cc1cccc(C)n1 + C1CCCCC1
viscosity [mPa·s], 101 kPa
Details | x1 = 0.104 | x1 = 0.198 | x1 = 0.306 | x1 = 0.4003 | x1 = 0.503 | x1 = 0.6001 | x1 = 0.705 | x1 = 0.799 | x1 = 0.898
303 K | 0.727 | 0.6904 | 0.67 | 0.6636 | 0.6619 | 0.6624 | 0.6771 | 0.6933 | 0.7297
313 K | 0.6341 | 0.6026 | 0.5879 | 0.58 | 0.5789 | 0.5888 | 0.601 | 0.615 | 0.6426
323 K | 0.5572 | 0.5372 | 0.5288 | 0.5212 | 0.5181 | 0.5208 | 0.5361 | 0.5491 | 0.5758

[Al+3].[Cl-].[Cl-].[Cl-] + CC(N)=O
viscosity [mPa·s], 101 kPa
Details | x1 = 0.5 | x1 = 0.52 | x1 = 0.57 | x1 = 0.6
313 K | 59.32 | 47.47 | 44.48 | 40.23
323 K | 41.01 | 32.24 | 30.87 | 28.7

ClC(Cl)C(Cl)(Cl)Cl + C1COCCO1
303.15 K, 101 kPa
Details | viscosity [mPa·s]
x2 = 0.0967 | 2.052
x2 = 0.1938 | 2.133
x2 = 0.2925 | 2.141
x2 = 0.3925 | 2.108
x2 = 0.4926 | 2.011
x2 = 0.5951 | 1.851
x2 = 0.6928 | 1.65
x2 = 0.795 | 1.463
x2 = 0.8962 | 1.289

CCC(O)CC + CCCCCCC
101 kPa
Details | viscosity [mPa·s]
293.4 K, x1 = 0.201 | 0.531
294 K, x1 = 0.026 | 0.466
294.1 K, x1 = 0.101 | 0.489
295.1 K, x1 = 0.5 | 0.734

CC(=O)c1ccccc1 + CCCCCO
298.15 K, 101 kPa
Details | viscosity [mPa·s]
x1 = 0.0754 | 3.104
x1 = 0.155 | 3.016
x1 = 0.2392 | 2.918
x1 = 0.3285 | 2.801
x1 = 0.4232 | 2.657
x1 = 0.524 | 2.498
x1 = 0.6313 | 2.31
x1 = 0.7459 | 2.102
x1 = 0.8685 | 1.898

CC(=O)c1ccccc1 + OCc1ccccc1
303.15 K, 101 kPa
Details | viscosity [mPa·s]
x1 = 0.0742 | 4.331
x1 = 0.2566 | 3.618
x1 = 0.3107 | 3.42
x1 = 0.4505 | 2.937
x1 = 0.528 | 2.685
x1 = 0.5727 | 2.544
x1 = 0.7494 | 2.036
x1 = 0.8383 | 1.82
x1 = 0.9234 | 1.638

CCCCCCCC/C=C\CCCCCCCC(=O)OCC(COC(=O)CCCCCCC/C=C\CCCCCCCC)OC(=O)CCCCCCC/C=C\CCCCCCCC + ClC(Cl)Cl
viscosity [mPa·s], 101.33 kPa
Details | x1 = 0.000728 | x1 = 0.000907 | x1 = 0.00244 | x1 = 0.004913 | x1 = 0.007824 | x1 = 0.01322 | x1 = 0.01672 | x1 = 0.03078
293.15 K | 0.5839 | 0.5875 | 0.6352 | 0.695 | 0.8133 | 1.032 | 1.109 | 1.733
298.15 K | 0.5545 | 0.5581 | 0.603 | 0.6576 | 0.7684 | 0.9701 | 1.042 | 1.585
303.15 K | 0.5275 | 0.5306 | 0.5725 | 0.6237 | 0.727 | 0.9137 | 0.9804 | 1.474

CC(=O)c1ccccc1 + CC#N
308.15 K, 101 kPa
Details | viscosity [mPa·s]
x1 = 0.048 | 0.34
x1 = 0.1023 | 0.3845
x1 = 0.1626 | 0.4361
x1 = 0.2321 | 0.4959
x1 = 0.3113 | 0.5746
x1 = 0.4024 | 0.6736
x1 = 0.5125 | 0.8002
x1 = 0.6426 | 0.9514
x1 = 0.8018 | 1.144
x1 = 0.9135 | 1.284

CC(=O)c1ccccc1 + CCCCOC(C)=O
viscosity [mPa·s], 101 kPa
Details | x2 = 0.0904 | x2 = 0.1786 | x2 = 0.2746 | x2 = 0.37 | x2 = 0.4671 | x2 = 0.5675 | x2 = 0.672 | x2 = 0.7729 | x2 = 0.8848
298.15 K | 1.557 | 1.452 | 1.341 | 1.232 | 1.129 | 1.028 | 0.933 | 0.848 | 0.763
303.15 K | 1.405 | 1.312 | 1.212 | 1.115 | 1.024 | 0.934 | 0.849 | 0.772 | 0.696
308.15 K | 1.29 | 1.207 | 1.119 | 1.034 | 0.95 | 0.87 | 0.792 | 0.724 | 0.655
313.15 K | 1.188 | 1.112 | 1.032 | 0.954 | 0.877 | 0.804 | 0.734 | 0.671 | 0.608

C[n+]1cc([O-])on1 + O
313.15 K, 101 kPa
Details | viscosity [mPa·s]
x2 = 0.1304 | 4.405
x2 = 0.2625 | 3.634
x2 = 0.4242 | 2.894
x2 = 0.6104 | 2.178
x2 = 0.7384 | 1.687
x2 = 0.882 | 1.121
x2 = 0.9089 | 1.015
x2 = 0.9709 | 0.775
x2 = 0.9746 | 0.768

CCCCCCCCC + CCCCCCC
298.15 K, 101.33 kPa
Details | viscosity [mPa·s]
x2 = 0.1102 | 0.6128
x2 = 0.2046 | 0.5921
x2 = 0.3052 | 0.562
x2 = 0.407 | 0.5372
x2 = 0.5092 | 0.5104
x2 = 0.6073 | 0.4838
x2 = 0.7071 | 0.4588
x2 = 0.8027 | 0.4312
x2 = 0.8996 | 0.4081
